The source made the active and inactive calls.
Assays:
HEK293 = assay: cells; format: functional, cell-based; settings: Homo sapiens
[1] = target: T1, Nuclear receptor subfamily 0 group B member 1 (Homo sapiens, UniProt P51843); assay: Luminescence-based cell-based high throughput dose response assay for inhibitors of the orphan nuclear receptor subfamily 0, group B, member 1 (DAX1; NR0B1). [Related pubchem assays (depositor defined):AID504766, AID504790]; format: functional
T1 sequence (P51843 whole entry): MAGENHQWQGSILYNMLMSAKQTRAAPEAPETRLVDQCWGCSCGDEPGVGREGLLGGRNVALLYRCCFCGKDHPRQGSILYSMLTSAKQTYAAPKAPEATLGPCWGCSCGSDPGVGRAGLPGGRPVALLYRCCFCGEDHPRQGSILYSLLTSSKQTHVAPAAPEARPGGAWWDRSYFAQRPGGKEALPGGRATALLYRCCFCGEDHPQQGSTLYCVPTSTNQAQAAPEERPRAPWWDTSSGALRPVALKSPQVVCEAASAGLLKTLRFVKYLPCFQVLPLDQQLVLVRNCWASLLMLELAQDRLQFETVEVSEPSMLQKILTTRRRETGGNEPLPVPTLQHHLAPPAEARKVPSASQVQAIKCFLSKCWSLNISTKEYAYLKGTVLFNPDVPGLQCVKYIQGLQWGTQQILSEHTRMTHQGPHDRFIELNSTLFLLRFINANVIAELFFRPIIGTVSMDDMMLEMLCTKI

[2] = target: T2, Type-1 angiotensin II receptor (Homo sapiens, UniProt P30556); assay: antagonism of angiotensin II type 1 receptor – cell-based, uHTS hits, selectivity assay for APJ receptor antagonist project, dose response (AID 463214); format: functional;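 note: antagonist potency against angiotensin II stimulated AT1 response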
T2 sequence (P30556 whole entry): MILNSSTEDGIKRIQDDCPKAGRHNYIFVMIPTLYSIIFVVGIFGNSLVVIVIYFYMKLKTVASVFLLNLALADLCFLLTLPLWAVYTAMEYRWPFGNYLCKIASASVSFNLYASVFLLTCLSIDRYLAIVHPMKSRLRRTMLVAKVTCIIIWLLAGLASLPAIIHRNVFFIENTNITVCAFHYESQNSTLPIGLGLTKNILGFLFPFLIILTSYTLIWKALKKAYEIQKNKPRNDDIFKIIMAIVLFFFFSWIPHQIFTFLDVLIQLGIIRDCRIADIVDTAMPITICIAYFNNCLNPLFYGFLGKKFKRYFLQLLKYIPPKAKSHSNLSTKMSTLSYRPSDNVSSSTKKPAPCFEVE

Beta-galactosidase = Beta-galactosidase (Escherichia coli, UniProt Q8VNN2); assay: PubChem AID 485352; format: functional
[3] = target: T3, Zinc finger protein mex-5 (Caenorhabditis elegans, UniProt Q9XUB2); assay: potency of MEX-5 RNA-binding blockers – biochemical, C. elegans, fluorescence polarization, dose response (AID 1960)
T3 sequence (Q9XUB2 whole entry): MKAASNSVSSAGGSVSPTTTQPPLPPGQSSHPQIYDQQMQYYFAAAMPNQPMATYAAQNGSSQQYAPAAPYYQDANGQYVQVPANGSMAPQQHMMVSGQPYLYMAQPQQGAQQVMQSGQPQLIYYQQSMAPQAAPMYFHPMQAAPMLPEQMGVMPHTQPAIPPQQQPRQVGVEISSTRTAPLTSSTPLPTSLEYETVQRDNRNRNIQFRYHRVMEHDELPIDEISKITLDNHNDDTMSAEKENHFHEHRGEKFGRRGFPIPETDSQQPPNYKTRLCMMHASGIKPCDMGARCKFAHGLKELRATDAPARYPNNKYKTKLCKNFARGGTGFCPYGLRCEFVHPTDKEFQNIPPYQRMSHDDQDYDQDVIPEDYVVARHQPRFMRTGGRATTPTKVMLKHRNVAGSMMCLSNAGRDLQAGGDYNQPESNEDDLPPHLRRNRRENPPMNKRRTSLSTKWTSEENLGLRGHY

[4] = target: T4, Endoribonuclease toxin MazF (Escherichia coli K-12, UniProt P0AE70); assay: activation of MazEF endoribonuclease cleavage – biochemical, fluorescence, single-stranded RNA substrate, uHTS hits, dose response (AID 588481); format: functional
T4 sequence (P0AE70 whole entry): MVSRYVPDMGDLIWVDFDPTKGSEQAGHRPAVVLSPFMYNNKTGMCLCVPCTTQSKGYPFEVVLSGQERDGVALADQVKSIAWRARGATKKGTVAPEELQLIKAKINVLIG

[5] = target: T5, Corticotropin-releasing factor receptor 2/Corticotropin-releasing factor-binding protein (Homo sapiens, UniProt P24387+Q13324); assay: activators of CRF receptor 2 with binding protein – uHTS hits, confirmation (AID 602473); format: functional; settings: read-out: EC50_Mean
T5 sequence (Q13324 whole entry): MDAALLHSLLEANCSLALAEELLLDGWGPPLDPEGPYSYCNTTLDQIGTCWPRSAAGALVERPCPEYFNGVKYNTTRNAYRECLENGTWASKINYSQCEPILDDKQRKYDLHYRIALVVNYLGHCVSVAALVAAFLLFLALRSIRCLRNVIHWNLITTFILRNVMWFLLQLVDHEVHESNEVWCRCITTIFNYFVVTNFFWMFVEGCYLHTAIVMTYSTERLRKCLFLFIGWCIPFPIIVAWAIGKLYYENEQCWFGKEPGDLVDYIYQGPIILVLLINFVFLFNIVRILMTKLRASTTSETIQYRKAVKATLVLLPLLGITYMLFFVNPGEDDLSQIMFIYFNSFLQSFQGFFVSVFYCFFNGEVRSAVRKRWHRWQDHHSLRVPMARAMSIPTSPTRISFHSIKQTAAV
T5 sequence (P24387 whole entry): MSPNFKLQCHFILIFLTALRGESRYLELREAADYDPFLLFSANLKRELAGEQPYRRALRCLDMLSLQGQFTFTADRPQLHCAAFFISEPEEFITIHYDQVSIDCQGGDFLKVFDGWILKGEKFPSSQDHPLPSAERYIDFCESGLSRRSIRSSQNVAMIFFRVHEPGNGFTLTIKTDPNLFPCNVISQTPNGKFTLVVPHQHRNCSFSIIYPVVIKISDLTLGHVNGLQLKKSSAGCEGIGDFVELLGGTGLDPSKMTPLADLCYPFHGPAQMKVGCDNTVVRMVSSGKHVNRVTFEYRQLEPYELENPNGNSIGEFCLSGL

[6] = target: T4, Endoribonuclease toxin MazF; assay: substrate-only fluorescence increase artefacts – biochemical, single-stranded RNase substrate, counter-screen for MazEF activator project, dose response (AID 588502); format: functional
[7] = target: T6, RNA-binding protein pos-1 (Caenorhabditis elegans, UniProt G5EF15); assay: disruptors of C. elegans POS-1 RNA interaction – biochemical, fluorescence polarization, dose response (AID 1964);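 note: purified POS-1 fused to maltose binding protein made in E. coli; potency of compounds blocking POS-1 binding to fluorescent RNA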
T6 sequence (G5EF15 whole entry): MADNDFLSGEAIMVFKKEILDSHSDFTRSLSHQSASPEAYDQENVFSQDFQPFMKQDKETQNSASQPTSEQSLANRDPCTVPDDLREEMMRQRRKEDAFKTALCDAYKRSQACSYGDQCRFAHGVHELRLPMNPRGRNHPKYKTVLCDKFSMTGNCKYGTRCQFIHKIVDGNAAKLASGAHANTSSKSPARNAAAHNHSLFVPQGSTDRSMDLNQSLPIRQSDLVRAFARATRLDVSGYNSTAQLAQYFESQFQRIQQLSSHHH

[8] = target: Delta-type opioid receptor (Homo sapiens, UniProt P41143); assay: Counterscreen for agonists of heterodimerization of the mu 1 (OPRM1) and delta 1 (OPRD1) opioid receptors: Luminescence-based cell-based high throughput dose response assay to identify agonists of OPRD1 homodimerization. [Related pubchem assays (depositor defined):AID504326, AID504355, AID504692, AID504904, AID504905]; format: functional
[9] = target: T7, DNA repair protein RAD52 homolog (Homo sapiens, UniProt P43351); format: functional, biochemical
T7 sequence (P43351 whole entry): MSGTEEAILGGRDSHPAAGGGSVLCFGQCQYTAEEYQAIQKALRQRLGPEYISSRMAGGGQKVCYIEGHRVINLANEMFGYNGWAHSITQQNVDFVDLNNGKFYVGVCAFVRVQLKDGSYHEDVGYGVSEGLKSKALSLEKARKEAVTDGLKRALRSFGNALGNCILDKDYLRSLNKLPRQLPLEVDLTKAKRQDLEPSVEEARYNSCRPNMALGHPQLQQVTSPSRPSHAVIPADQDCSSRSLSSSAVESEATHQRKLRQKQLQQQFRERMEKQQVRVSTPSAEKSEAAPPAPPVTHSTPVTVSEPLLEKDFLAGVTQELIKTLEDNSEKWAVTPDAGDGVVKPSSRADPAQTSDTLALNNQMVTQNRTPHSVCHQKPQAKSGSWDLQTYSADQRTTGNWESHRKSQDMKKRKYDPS

Mu-type opioid receptor = Mu-type opioid receptor (Homo sapiens, UniProt P35372); assay: Counterscreen for agonists of heterodimerization of the mu 1 (OPRM1) and delta 1 (OPRD1) opioid receptors: Luminescence-based cell-based high throughput dose response assay to identify agonists of OPRM1 homodimerization.; format: functional;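 note: U2OS cells expressing OPRM1 and beta-arrestin as split beta-galactosidase partners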
[10] = target: T8, Short transient receptor potential channel 4 (Mus musculus, UniProt Q9QUQ5); assay: calcium entry via TRPC4 opening agents – cell-based, HEK293 TRPC4/mu-opioid, Fluo-4 calcium, dose response (AID 434937); format: functional
T8 sequence (Q9QUQ5 whole entry): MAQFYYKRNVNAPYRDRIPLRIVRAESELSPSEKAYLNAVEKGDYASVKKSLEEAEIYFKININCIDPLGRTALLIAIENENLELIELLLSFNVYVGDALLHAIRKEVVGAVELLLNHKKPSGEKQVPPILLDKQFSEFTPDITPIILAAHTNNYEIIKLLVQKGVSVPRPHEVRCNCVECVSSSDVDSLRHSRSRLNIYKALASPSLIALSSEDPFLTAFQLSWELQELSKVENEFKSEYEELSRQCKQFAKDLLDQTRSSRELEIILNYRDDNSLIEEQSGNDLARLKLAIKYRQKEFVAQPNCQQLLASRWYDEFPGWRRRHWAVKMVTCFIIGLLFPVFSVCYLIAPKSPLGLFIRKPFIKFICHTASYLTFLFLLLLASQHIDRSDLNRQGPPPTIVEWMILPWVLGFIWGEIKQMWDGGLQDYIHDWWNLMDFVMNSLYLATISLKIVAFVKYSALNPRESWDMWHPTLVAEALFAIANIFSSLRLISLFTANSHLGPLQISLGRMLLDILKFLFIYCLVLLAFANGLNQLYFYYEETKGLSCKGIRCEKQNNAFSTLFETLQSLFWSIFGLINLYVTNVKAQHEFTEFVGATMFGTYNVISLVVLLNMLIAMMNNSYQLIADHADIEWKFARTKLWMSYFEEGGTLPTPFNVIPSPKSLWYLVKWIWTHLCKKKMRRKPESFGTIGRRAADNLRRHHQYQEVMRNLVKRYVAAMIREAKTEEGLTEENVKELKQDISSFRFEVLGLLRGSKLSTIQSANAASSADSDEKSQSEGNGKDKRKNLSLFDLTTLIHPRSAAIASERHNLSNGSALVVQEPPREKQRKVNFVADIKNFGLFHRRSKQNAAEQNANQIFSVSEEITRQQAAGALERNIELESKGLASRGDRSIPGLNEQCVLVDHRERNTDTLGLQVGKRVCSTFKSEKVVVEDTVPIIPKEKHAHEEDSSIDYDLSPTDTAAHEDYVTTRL

[11] = target: 5-hydroxytryptamine receptor 5A (Homo sapiens, UniProt P47898); assay: Counterscreen for agonists of OPRM1-OPRD1 heterodimerization: luminescence-based cell-based high throughput dose response assay to identify agonists of 5-hydroxytryptamine (serotonin) 5A receptor (HTR5A). [Related pubchem assays (depositor defined):AID504326, AID504355, AID504692, AID504904, AID504905]; format: functional
[12] = A Cell Based Secondary Assay To Explore Cytotoxicity of Compounds that Sensitize Mycobacterium Tuberculosis to Beta-Lactam Antibiotics.; format: functional
[13] = blockade of melanocortin 4 receptor signaling – cell-based, plate reader, cherry pick, counter-screen for LGR2 antagonist project, dose response (AID 743444); format: functional;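 note: transfected HEK 293 cells stimulated with alpha-MSH peptide; potency of inhibitors of the alpha-MSH evoked signal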
[14] = blockers of bursicon-stimulated LGR2 cAMP reporter – cell-based, HEK293, CRE-luciferase reporter, cherry pick, set 2, dose response (AID 743343); format: functional;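 note: transfected cells were stimulated with diluted bursicon conditioned medium after compound addition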
[15] = A549 cell cytotoxicity, dose response, cytotoxicity control, plate reader, cherry-pick, antagonist series (AID 743412); format: functional, cell-based
Cytochrome P450 2C9 = Cytochrome P450 2C9 (Homo sapiens, UniProt P11712)
Chain of Cytochrome P450 2C9 (P11712 whole entry): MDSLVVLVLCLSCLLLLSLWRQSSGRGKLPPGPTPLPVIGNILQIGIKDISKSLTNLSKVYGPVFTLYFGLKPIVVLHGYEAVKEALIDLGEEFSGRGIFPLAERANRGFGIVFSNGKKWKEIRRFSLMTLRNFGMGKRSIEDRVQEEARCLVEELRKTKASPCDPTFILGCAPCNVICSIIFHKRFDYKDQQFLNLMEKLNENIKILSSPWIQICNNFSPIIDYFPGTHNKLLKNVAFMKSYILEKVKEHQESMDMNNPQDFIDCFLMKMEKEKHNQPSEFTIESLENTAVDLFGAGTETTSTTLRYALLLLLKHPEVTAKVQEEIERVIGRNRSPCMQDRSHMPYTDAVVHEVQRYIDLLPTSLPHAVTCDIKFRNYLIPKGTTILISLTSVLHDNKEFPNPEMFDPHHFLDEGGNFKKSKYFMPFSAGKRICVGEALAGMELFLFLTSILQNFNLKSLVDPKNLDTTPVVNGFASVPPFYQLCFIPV

Chain of Beta-galactosidase (Q8VNN2 whole entry): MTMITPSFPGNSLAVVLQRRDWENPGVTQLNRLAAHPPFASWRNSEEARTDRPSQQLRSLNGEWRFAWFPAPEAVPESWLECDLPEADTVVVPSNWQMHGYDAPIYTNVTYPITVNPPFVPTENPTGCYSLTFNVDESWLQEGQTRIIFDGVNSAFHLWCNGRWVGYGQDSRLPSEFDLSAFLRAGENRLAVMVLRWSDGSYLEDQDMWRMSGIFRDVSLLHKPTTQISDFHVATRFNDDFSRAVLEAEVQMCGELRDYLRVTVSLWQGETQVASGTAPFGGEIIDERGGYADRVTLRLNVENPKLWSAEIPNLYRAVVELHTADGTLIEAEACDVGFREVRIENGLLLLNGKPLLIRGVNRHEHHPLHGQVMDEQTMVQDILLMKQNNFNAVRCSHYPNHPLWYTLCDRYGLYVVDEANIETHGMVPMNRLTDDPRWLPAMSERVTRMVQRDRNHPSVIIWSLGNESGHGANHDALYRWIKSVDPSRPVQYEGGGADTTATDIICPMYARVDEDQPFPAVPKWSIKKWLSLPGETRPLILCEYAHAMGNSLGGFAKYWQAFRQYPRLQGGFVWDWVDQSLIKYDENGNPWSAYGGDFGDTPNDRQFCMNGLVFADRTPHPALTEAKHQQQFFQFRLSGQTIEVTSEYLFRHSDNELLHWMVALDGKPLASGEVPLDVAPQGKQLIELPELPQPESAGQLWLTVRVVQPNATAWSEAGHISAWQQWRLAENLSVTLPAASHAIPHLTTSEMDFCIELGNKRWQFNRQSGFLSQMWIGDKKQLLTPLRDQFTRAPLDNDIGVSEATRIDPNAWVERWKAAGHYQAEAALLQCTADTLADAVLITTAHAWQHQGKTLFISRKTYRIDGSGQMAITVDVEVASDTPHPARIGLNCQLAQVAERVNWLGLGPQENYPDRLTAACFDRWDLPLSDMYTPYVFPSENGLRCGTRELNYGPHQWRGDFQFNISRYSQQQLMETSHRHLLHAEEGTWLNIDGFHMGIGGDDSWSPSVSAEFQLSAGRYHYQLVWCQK
Chain of Mu-type opioid receptor (P35372 whole entry): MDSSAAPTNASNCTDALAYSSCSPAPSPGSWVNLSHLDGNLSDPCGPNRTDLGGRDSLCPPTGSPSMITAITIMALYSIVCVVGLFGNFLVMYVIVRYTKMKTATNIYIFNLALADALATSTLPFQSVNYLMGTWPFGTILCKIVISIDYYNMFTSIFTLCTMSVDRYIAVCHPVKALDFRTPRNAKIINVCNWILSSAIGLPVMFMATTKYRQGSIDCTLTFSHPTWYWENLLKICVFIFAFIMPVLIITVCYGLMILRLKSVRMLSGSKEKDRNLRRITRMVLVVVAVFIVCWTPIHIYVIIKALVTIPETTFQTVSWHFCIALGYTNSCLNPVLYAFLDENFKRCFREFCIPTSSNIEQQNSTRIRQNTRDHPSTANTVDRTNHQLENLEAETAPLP
Chain of Delta-type opioid receptor (P41143 whole entry): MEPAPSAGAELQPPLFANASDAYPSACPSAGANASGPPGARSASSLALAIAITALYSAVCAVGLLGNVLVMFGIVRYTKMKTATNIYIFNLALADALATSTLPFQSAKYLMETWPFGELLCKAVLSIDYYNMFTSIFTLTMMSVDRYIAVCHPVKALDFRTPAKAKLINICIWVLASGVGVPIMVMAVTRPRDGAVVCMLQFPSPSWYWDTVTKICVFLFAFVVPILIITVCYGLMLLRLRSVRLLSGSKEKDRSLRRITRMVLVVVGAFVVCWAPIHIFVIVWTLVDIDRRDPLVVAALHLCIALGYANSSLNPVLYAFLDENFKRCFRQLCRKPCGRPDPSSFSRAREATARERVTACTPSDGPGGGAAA
Chain of 5-hydroxytryptamine receptor 5A (P47898 whole entry): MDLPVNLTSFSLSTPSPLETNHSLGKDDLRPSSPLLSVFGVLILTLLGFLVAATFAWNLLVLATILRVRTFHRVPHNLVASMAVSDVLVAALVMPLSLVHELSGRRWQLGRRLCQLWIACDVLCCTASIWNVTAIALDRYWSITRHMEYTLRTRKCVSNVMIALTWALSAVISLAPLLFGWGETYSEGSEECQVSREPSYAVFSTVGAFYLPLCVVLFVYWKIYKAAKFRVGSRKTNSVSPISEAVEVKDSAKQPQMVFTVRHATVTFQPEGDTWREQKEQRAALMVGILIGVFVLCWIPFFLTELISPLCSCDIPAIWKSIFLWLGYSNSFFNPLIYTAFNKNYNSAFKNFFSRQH

Cn1c(N)c(C(=O)COC(=O)CSc2ccccc2)c(=O)n(C)c1=O
IC50 (HEK293): > 67.6 µM (inactive) | IC50 [1]: > 67.6 µM (inactive)

COC(=O)CSc1[nH]c2ccc(Br)cc2c1[N+](=O)[O-]
IC50 [2]: > 40 µM (not active) | EC50 (Beta-galactosidase): > 40 µM (inactive)

NC(=O)c1c(NC(=O)c2ccccc2)sc2c1CCN(Cc1ccccc1)C2
EC50 [3]: > 300 µM (inconclusive) | EC50 [4]: > 99 µM (inactive) | EC50 [5]: 12.6 µM (active) | EC50 [6]: > 99 µM (inactive) | EC50 [7]: > 300 µM (not active)

Oc1[nH]c2ccccc2c1N=Nc1cccc(Cl)c1
EC50 [3]: 45.4 µM (active) | EC50 [4]: > 99 µM (inactive) | EC50 [6]: > 99 µM (inactive) | EC50 [7]: 125 µM (active)

CN1CCN(c2ccc(NC(=O)c3ccc(-c4cccc([N+](=O)[O-])c4)o3)cc2)CC1
EC50 [8]: 70 µM (inactive) | AC50 [9]: 10.3 µM (active) | EC50 (Mu-type opioid receptor): > 30.8 µM (inactive) | EC50 [10]: 0.299 µM (active) | EC50 [11]: > 92.5 µM (inactive) | CC50 [12]: 29 µM (active)

Nc1nccc(-c2cc(-c3ccc(Cl)cc3Cl)no2)n1
AC50 [13]: 8.35 µM (active) | IC50 (HEK293): > 67.6 µM (inactive) | AC50 [14]: 8.96 µM (active) | AC50 [15]: > 52 µM (inactive) | IC50 [1]: > 67.6 µM (inactive)

O=C(COC(=O)c1cccnc1)c1ccc(Cl)c(Cl)c1
IC50 [2]: 36.8 µM (not active) | AC50 (Cytochrome P450 2C9): 7.94 µM (inconclusive) | EC50 (Beta-galactosidase): > 40 µM (inactive)

COc1ccc(OC)c(C(C)NC(=O)c2ccc(Br)cc2)c1 (centres undefined)
IC50 (HEK293): > 67.6 µM (inactive) | IC50 [1]: > 67.6 µM (inactive)
